The structures appear in SMILES notation.

In experiment [1] the test system is S-RBD-ACE2 interaction, AH109 (pAD-S-RBD+pBD-ACE2). Type of experiment: cell-based, SARS-CoV-2 S-RBD, human ACE2 (in yeast).
For experiment [2], the target named is S-RBD-ACE2 interaction, AH109 (pAD-S-RBD+pBD-ACE2) (UniProt P0DTC2+Q9BYF1). Type of experiment: cell-based, SARS-CoV-2 S-RBD, human ACE2 (in yeast).

With `O=C(c1ccc(N2CCCCS2(=O)=O)cc1)N1CCN(C(=O)c2ccco2)CC1` [IMB-1C], in experiment [1], the “Difference of MICs among AH109 (pAD-S-RBD+pBD-ACE2) and AH109 (pAD-T+pBD-53)” value is listed as 2 fold.
The same measure, in the same setting: next, `Cc1ccc(N(Sc2ccc(Cl)cc2)C2C=CS(=O)(=O)C2)cc1` (stereo not drawn) [IMB-4A]: 2 fold.
For `CC(C)CCC[C@@H](C)[C@H]1CC[C@H]2[C@@H]3CC[C@H]4C[C@@H](O[C@@H]5O[C@H](COS(=O)(=O)O)[C@@H](O[C@H]6O[C@H](COS(=O)(=O)O)[C@@H](O[C@H]7O[C@H](COS(=O)(=O)O)[C@@H](O[C@H]8O[C@H](COS(=O)(=O)O)[C@@H](OS(=O)(=O)O)[C@H](OS(=O)(=O)O)[C@H]8OS(=O)(=O)O)[C@H](OS(=O)(=O)O)[C@H]7OS(=O)(=O)O)[C@H](OS(=O)(=O)O)[C@H]6OS(=O)(=O)O)[C@H](OS(=O)(=O)O)[C@H]5OS(=O)(=O)O)CC[C@]4(C)[C@H]3CC[C@]12C` [Pixatimod, reference compound], the “MIC against AH109 (pAD-S-RBD+pBD-ACE2)” value in experiment [2] came to 1.56 μg/mL.

(Values after article PMC11765512 (International Journal of Molecular Sciences, 2025).)
